Experimental data: patent US9241488B2, “Azole derivative, method for producing azole derivative, and intermediate compound” (KUREHA CORPORATION, priority 2011, dated 2016)
Read-outs that look alike come from different tables or passages of the source.

Legend:
[1] = tested on: Wheat fusarium blight (Fusarium graminearum); assay type: cell-based
[2] = tested on: Wheat eye spot (Pseudocercoporella herpotrichoides); test: Anti-bacterial effect on various microorganisms (plate medium), P.h; assay type: cell-based
[3] = tested on: Alternaria blotch (Alternaria alternata); test: Anti-bacterial effect on various microorganisms (plate medium), A.m; assay type: cell-based
[4] = tested on: wheat-brown-rust-causing microorganisms; test: Controlling effect on wheat brown rust (spray, pot test); assay type: in vivo, Puccinia recondita; conditions: 1 mg/L sprayed at 1,000 L/ha, wheat NORIN No. 61, 9 to 14 days after inoculation
Description: Onto a wheat plant (cultivar: NORIN No. 61) grown to the two-leaf stage with use of a square plastic pot (6 cm×6 cm), a wettable formulation such as Formulation Example 1 which was diluted and suspended in water at a concentration of 1 mg/L was sprayed at a rate of 1,000 L/ha. The sprayed leaves were air-dried, and inoculated with spore suspension of wheat-brown-rust-causing microorganisms (adjusted at 200 spores/vision, […] was added at 60 ppm) by spraying, and kept at 25° C. and a high humidity for 48 hours. Thereafter, the plant was kept in a greenhouse. Nine to fourteen days after inoculation, the wheat brown rust lesion degree was evaluated. The protective value was calculated by the following equation. Protective value (%)=(1-mean lesion degree in sprayed plot/mean lesion degree in unsprayed plot)×100 [table] [table]

[5] = tested on: Wheat pink snow mold (Microdochium nivale); test: Anti-bacterial effect on various microorganisms (plate medium), M.n; assay type: cell-based
[6] = tested on: Cucumber fusarium wilt (Fusarium oxysporum); test: Anti-bacterial effect on various microorganisms (plate medium), F.c; assay type: cell-based
[7] = tested on: Rice blast (Pyricularia oryzae); assay type: cell-based
[8] = tested on: Sclerotinia rot (Sclerotinia sclerotiorum); test: Anti-bacterial effect on various microorganisms (plate medium), S.s; assay type: cell-based
[9] = tested on: Rice bacterial seeding blight (Rhizopus oryzae); test: Anti-bacterial effect on various microorganisms (plate medium), R.o; assay type: cell-based
[10] = tested on: Wheat Septoria nodorum blotch microorganism (Phaeosphaeria nodorum); test: Anti-bacterial effect on various microorganisms (plate medium), P.n; assay type: cell-based
[11] = tested on: Barley loose smut (Ustilago nuda); test: Anti-bacterial effect on various microorganisms (plate medium), U.n; assay type: cell-based
[12] = tested on: Rice bakanae disease (Giberella fujikuroi); test: Anti-bacterial effect on various microorganisms (plate medium), G.f; assay type: cell-based
[13] = tested on: Barley leaf blotch (Rhynchosporium secalis); test: Anti-bacterial effect on various microorganisms (plate medium), R. sec; assay type: cell-based
[14] = tested on: wheat leaf blight-causing microorganisms; test: Anti-bacterial effect on wheat leaf blight-causing microorganisms (PDA plate, mycelial growth inhibition); assay type: cell-based, Septoria tritici; conditions: 1.25 mg/L in PDA plate medium, 25° C., 14 days
Description: In Test Examples, an anti-bacterial effect of a compound in accordance with the present invention on the wheat leaf blight-causing microorganisms was tested, and was compared with the anti-bacterial effect of a comparative compound (1).
A dimethyl sulfoxide solution (0.6 ml) containing a compound in accordance with the present invention was added to a PDA medium (potato dextrose agar medium) (60 ml) having about 60° C., and the resultant mixture was mixed thoroughly in a 100-ml conical flask. The mixture was poured into a dish, and was solidified. […]
On the other hand, a subject microorganism previously cultured on a plate medium was cut out with use of a cork borer whose diameter was 4 mm, and the wheat leaf blight-causing microorganism on the plate medium thus cut out was inoculated to the chemical-containing plate medium described above. After such inoculation, the chemical-containing plate medium was incubated at 25° C. for 14 days, and then diameters of its flora were measured. A % mycelial growth inhibition was calculated with use of the formula. R=100(dc−dt)/dc (where R=% mycelial extension inhibition, dc=flora diameter in untreated plate, dt=flora diameter in treated plate)
The results obtained as described above were evaluated on a five-point scale according to the following criteria.
• 5: % Mycerial growth inhibition of 80% or higher • 4: % Mycerial growth inhibition of less than 80 to 60% or higher • 3: % Mycerial growth inhibition of less than 60 to 40% or higher • 2: % Mycerial growth inhibition of less than 40 to 20% or higher • 1: % Mycerial growth inhibition of less than 20%

[15] = tested on: wheat brown rust-causing microorganisms; test: Controlling effect on wheat brown rust caused by seed treatment (pot test); assay type: in vivo, Puccinia recondita; conditions: 2 mg compound per 1 g wheat seeds, inoculated 21 days after seeding, evaluated 14 days after inoculation
Description: An efficacy against wheat brown rust was evaluated by performing a pot test. […] The pots were kept in a greenhouse with supplying water underneath. Twenty one days after the seeding, wheat brown rust-causing microorganisms was inoculated, and the pots were stored in a humidity chamber for 2 days. The pots were kept again in a greenhouse with supplying water underneath. Fourteen days after the inoculation, a lesion degree was evaluated, and a protective value was calculated. The protective value was calculated with use of the following formula, and was defined as a wheat brown rust protective value. Protective value=(1−lesion degree in treated plot/lesion degree in untreated plot)×100(%)

[16] = tested on: Gray mold (Botritis cinerea); test: Anti-bacterial effect on various microorganisms (plate medium), B.c; assay type: cell-based
[17] = tested on: Barley leaf blotch (Rhynchosporium secalis); test: Anti-bacterial effect of V′ compounds on various microorganisms (plate medium), R. sec; assay type: cell-based; conditions: 5 mg/L
[18] = tested on: Wheat leaf blight (Septoria tritici); test: Anti-bacterial effect of V′ compounds on various microorganisms (plate medium), S.t; assay type: cell-based; conditions: 5 mg/L
G.g = test: Anti-bacterial effect of V′ compounds on various microorganisms (plate medium), G.g; assay type: cell-based; conditions: 5 mg/L
[19] = tested on: Swollen rice seedling (Rhizopus oryzae); test: Anti-bacterial effect of V′ compounds on various microorganisms (plate medium), R.o; assay type: cell-based; conditions: 5 mg/L
[20] = tested on: Barley stripe (Pyrenophora graminea); test: Anti-bacterial effect of V′ compounds on various microorganisms (plate medium), P.g; assay type: cell-based; conditions: 5 mg/L
[21] = tested on: Rice blast (Pyricularia oryzae); assay type: cell-based; conditions: 5 mg/L
[22] = tested on: Wheat Septoria nodorum blotch microorganism (Phaeosphaeria nodorum); test: Anti-bacterial effect of V′ compounds on various microorganisms (plate medium), P.n; assay type: cell-based; conditions: 5 mg/L
[23] = tested on: Snow mold of winter wheat (Microdochium nivale); test: Anti-bacterial effect of V′ compounds on various microorganisms (plate medium), M.n; assay type: cell-based; conditions: 5 mg/L

Row | Structure (SMILES) | Growth inhibition grade F.g ([1]; 1.25 mg/L) | Growth inhibition grade F.g ([1]; 5 mg/L) | Growth inhibition grade P.h ([2]; 1.25 mg/L) | Growth inhibition grade P.h ([2]; 5 mg/L) | Growth inhibition grade A.m ([3]; 1.25 mg/L) | Growth inhibition grade A.m ([3]; 5 mg/L) | Protective value [4] | Growth inhibition grade M.n ([5]; 1.25 mg/L) | Growth inhibition grade M.n ([5]; 5 mg/L) | Growth inhibition grade F.c ([6]; 1.25 mg/L) | Growth inhibition grade F.c ([6]; 5 mg/L) | Growth inhibition grade P.o ([7]; 1.25 mg/L) | Growth inhibition grade P.o ([7]; 5 mg/L) | Growth inhibition grade S.s ([8]; 1.25 mg/L) | Growth inhibition grade S.s ([8]; 5 mg/L) | Growth inhibition grade R.o ([9]; 1.25 mg/L) | Growth inhibition grade R.o ([9]; 5 mg/L) | Growth inhibition grade P.n ([10]; 1.25 mg/L) | Growth inhibition grade P.n ([10]; 5 mg/L) | Growth inhibition grade U.n ([11]; 1.25 mg/L) | other results
1 | COC[C@]1(CCl)CC[C@@H](Cc2ccc(Cl)cc2)[C@]1(O)Cn1cncn1 (racemic) [Compound I-16a, (1RS,2RS,5SR)-5-(4-chlorobenzyl)-2-chloromethyl-2-methoxymethyl-1H-[1,2,4]triazole-1-ylmethylcyclopentanol] | 5 (% Mycerial growth inhibition of 80% or higher) | 5 (% Mycerial growth inhibition of 80% or higher) | 4 (% Mycerial growth inhibition of less than 80 to 60% or higher) | 5 (% Mycerial growth inhibition of 80% or higher) | 4 (% Mycerial growth inhibition of less than 80 to 60% or higher) | 5 (% Mycerial growth inhibition of 80% or higher) | 4 (61 to 80) | 5 (% Mycerial growth inhibition of 80% or higher) | 5 (% Mycerial growth inhibition of 80% or higher) | 5 (% Mycerial growth inhibition of 80% or higher) | 5 (% Mycerial growth inhibition of 80% or higher) | 5 (% Mycerial growth inhibition of 80% or higher) | 5 (% Mycerial growth inhibition of 80% or higher) | 5 (% Mycerial growth inhibition of 80% or higher) | 5 (% Mycerial growth inhibition of 80% or higher) | 5 (% Mycerial growth inhibition of 80% or higher) | 5 (% Mycerial growth inhibition of 80% or higher) | 5 (% Mycerial growth inhibition of 80% or higher) | 5 (% Mycerial growth inhibition of 80% or higher) | 5 (% Mycerial growth inhibition of 80% or higher) | Growth inhibition grade U.n ([11]; 5 mg/L): 5 (% Mycerial growth inhibition of 80% or higher); Growth inhibition grade G.f ([12]; 1.25 mg/L): 5 (% Mycerial growth inhibition of 80% or higher); Growth inhibition grade G.f ([12]; 5 mg/L): 5 (% Mycerial growth inhibition of 80% or higher); Growth inhibition grade R. sec ([13]; 1.25 mg/L): 5 (% Mycerial growth inhibition of 80% or higher); Growth inhibition grade R. sec ([13]; 5 mg/L): 5 (% Mycerial growth inhibition of 80% or higher); Growth inhibition grade [14]: 5 (% Mycerial growth inhibition of 80% or higher); wheat brown rust protective value [15]: 100%; Growth inhibition grade B.c ([16]; 1.25 mg/L): 5 (% Mycerial growth inhibition of 80% or higher); Growth inhibition grade B.c ([16]; 5 mg/L): 5 (% Mycerial growth inhibition of 80% or higher)
2 | CCOC[C@]1(CCl)CC[C@@H](Cc2ccccc2)[C@]1(O)Cn1cncn1 (racemic) [Compound I-234, (1RS,2RS,5SR)-5-benzyl-2-chloromethyl-2-ethoxymethyl-1H-[1,2,4]triazole-1-ylmethylcyclopentanol] | 5 (% Mycerial growth inhibition of 80% or higher) | 5 (% Mycerial growth inhibition of 80% or higher) | 4 (% Mycerial growth inhibition of less than 80 to 60% or higher) | 5 (% Mycerial growth inhibition of 80% or higher) | 4 (% Mycerial growth inhibition of less than 80 to 60% or higher) | 5 (% Mycerial growth inhibition of 80% or higher) | 4 (61 to 80) | 5 (% Mycerial growth inhibition of 80% or higher) | 5 (% Mycerial growth inhibition of 80% or higher) | 5 (% Mycerial growth inhibition of 80% or higher) | 5 (% Mycerial growth inhibition of 80% or higher) | 5 (% Mycerial growth inhibition of 80% or higher) | 5 (% Mycerial growth inhibition of 80% or higher) | 5 (% Mycerial growth inhibition of 80% or higher) | 5 (% Mycerial growth inhibition of 80% or higher) | 5 (% Mycerial growth inhibition of 80% or higher) | 5 (% Mycerial growth inhibition of 80% or higher) | 5 (% Mycerial growth inhibition of 80% or higher) | 5 (% Mycerial growth inhibition of 80% or higher) | 5 (% Mycerial growth inhibition of 80% or higher) | Growth inhibition grade U.n ([11]; 5 mg/L): 5 (% Mycerial growth inhibition of 80% or higher); Growth inhibition grade G.f ([12]; 1.25 mg/L): 5 (% Mycerial growth inhibition of 80% or higher); Growth inhibition grade G.f ([12]; 5 mg/L): 5 (% Mycerial growth inhibition of 80% or higher); Growth inhibition grade R. sec ([13]; 1.25 mg/L): 5 (% Mycerial growth inhibition of 80% or higher); Growth inhibition grade R. sec ([13]; 5 mg/L): 5 (% Mycerial growth inhibition of 80% or higher); Growth inhibition grade [14]: 5 (% Mycerial growth inhibition of 80% or higher); Growth inhibition grade B.c ([16]; 1.25 mg/L): 5 (% Mycerial growth inhibition of 80% or higher); Growth inhibition grade B.c ([16]; 5 mg/L): 5 (% Mycerial growth inhibition of 80% or higher)
3 | CC1(C)OCC2(CCC(Cc3ccc(Cl)cc3)C2(O)Cn2cncn2)CO1 (stereo not drawn) [Compound V′-a-cis, 2-(4-chlorobenzyl)-8,8-dimethyl-1-[1,2,4]triazole-1-ylmethyl-7,9-dioxaspiro[4,5]decane-1-ol] |  |  |  |  |  |  |  |  |  |  |  |  |  |  |  |  |  |  |  |  | Anti-bacterial effect index against various microorganisms R. sec [17]: 5 (% Mycerial growth inhibition of 80% or higher); Anti-bacterial effect index against various microorganisms S.t [18]: 5 (% Mycerial growth inhibition of 80% or higher); Anti-bacterial effect index against various microorganisms G.g (G.g): 5 (% Mycerial growth inhibition of 80% or higher); Anti-bacterial effect index against various microorganisms R.o [19]: 5 (% Mycerial growth inhibition of 80% or higher); Anti-bacterial effect index against various microorganisms P.g [20]: 5 (% Mycerial growth inhibition of 80% or higher); Anti-bacterial effect index against various microorganisms P.o [21]: 5 (% Mycerial growth inhibition of 80% or higher); Anti-bacterial effect index against various microorganisms P.n [22]: 5 (% Mycerial growth inhibition of 80% or higher); inhibition at 1.25 µg/mL ([14]; 336 h, read-out: Growth inhibition grade): > 80%; Anti-bacterial effect index against various microorganisms M.n [23]: 5 (% Mycerial growth inhibition of 80% or higher)
